Legend:
hTLR9 = target: T1, hTLR9 (Homo sapiens, UniProt Q9NR96); test: HEK293-Blue-hTLR-9 cells assay (SEAP reporter, ODN2006 stimulation); assay type: cell-based; design: host or cells: HEK293 (HEK-Blue); settings: HEK293-Blue-hTLR9 cells, ODN2006, 20 hrs; read-out: HEK/hTLR9 IC50
T1 sequence (Q9NR96 26-1032): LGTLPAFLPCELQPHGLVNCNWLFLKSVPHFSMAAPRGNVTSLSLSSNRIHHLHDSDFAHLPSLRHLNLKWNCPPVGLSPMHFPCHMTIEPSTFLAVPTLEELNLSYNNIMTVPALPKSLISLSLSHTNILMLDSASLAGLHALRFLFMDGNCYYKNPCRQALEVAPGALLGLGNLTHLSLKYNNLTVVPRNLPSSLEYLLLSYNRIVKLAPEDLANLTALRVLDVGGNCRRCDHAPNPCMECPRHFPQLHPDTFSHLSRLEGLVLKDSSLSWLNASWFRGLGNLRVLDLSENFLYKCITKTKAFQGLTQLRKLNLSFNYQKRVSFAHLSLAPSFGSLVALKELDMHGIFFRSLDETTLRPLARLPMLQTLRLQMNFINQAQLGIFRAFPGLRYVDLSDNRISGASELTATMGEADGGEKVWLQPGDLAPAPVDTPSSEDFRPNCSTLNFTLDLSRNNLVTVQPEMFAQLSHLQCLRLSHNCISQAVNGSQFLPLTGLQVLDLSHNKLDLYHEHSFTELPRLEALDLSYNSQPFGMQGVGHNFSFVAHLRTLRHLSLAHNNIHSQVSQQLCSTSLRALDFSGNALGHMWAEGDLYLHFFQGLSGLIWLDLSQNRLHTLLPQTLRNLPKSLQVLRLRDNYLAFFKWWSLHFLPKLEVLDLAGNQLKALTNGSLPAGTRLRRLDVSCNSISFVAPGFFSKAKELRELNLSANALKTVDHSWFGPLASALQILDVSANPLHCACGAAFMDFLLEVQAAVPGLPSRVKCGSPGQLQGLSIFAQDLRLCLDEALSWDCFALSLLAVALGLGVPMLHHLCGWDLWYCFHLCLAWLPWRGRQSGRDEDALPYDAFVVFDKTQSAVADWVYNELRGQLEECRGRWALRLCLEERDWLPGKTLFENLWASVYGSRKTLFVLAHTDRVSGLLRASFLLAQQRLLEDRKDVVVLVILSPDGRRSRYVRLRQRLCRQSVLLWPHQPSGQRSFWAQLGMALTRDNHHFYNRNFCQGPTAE
Text: A stable HEK293-Blue-hTLR-9 cell line was purchased from InvivoGen (Cat.#: hkb-htlr9, San Diego, California, USA). These cells were originally designed for studying the stimulation of human TLR9 by monitoring the activation of NF-κB. A SEAP (secreted embryonic alkaline phosphatase) reporter gene was placed under the control of the IFN-β minimal promoter fused to five NF-κB and AP-1-binding sites. The SEAP was induced by activating NF-κB and AP-1 via stimulating HEK-Blue hTLR9 cells with TLR9 ligands. Therefore, the reporter expression was declined by TLR9 antagonist under the stimulation of a ligand, such as ODN2006 (Cat.#: tlrl-2006-1, Invivogen, San Diego, California, USA), for incubation of 20 hrs. The cell culture supernatant SEAP reporter activity was determined using QUANTI-Blue™ kit (Cat.#: rep-qb 1, Invivogen, San Diego, California, USA) at a wavelength of 640 nm, a detection medium that turns purple or blue in the presence of alkaline phosphatase.
HEK293-Blue-hTLR9 cells were incubated at a density of 250,000-450,000 cells/mL in a volume of 170 µL in a 96-well plate in Dulbecco's Modified Eagle's medium (DMEM) containing 4.5 g/L glucose, 50 U/mL penicillin, […], […], 2 mM L-glutamine, 10% (v/v) heat-inactivated fetal bovine serum with addition of 20 µL test compound in a serial dilution in the presence of final DMSO at 1% and 10 µL of 20uM ODN2006 in above DMEM, perform incubation under 37 °C in a CO2 incubator for 20 hrs. Then 20 µL of the supernatant from each well was incubated with 180 µL Quanti-blue substrate solution at 37 °C for 2 hrs and the absorbance was read at 620-655 nm using a spectrophotometer. The signaling pathway that TLR9 activation leads to downstream NF-κB activation has been widely accepted, and therefore similar reporter assay was modified for evaluating TLR9 antagonist.

[1] = Human microsome stability assay; assay type: in vitro ADME; settings: 1 µM test compound, 0.5 mg/mL liver microsomal protein, 37 °C
Description: The human microsomal stability assay is used for early assessment of metabolic stability of a test compound in human liver microsomes.
Human liver microsomes (Cat.NO.: 452117, Corning, USA;Cat.NO.:H2610, Xenotech, USA) were preincubated with test compound for 10 minutes at 37 °C in 100 mM potassium phosphate buffer, pH 7.4. The reactions were initiated by adding NADPH regenerating system. The final incubation mixtures contained 1 µM test compound, 0.5 mg/mL liver microsomal protein, 1 mM MgClz, 1 mM NADP, 1 unit/mL isocitric dehydrogenase and 6 mM isocitric acid in 100 mM potassium phosphate buffer, pH 7.4. After incubation times of 0, 3, 6, 9, 15 and 30 minutes at 37 °C, 300 µL of cold acetonitrile (including internal standard) was added to 100 µL incubation mixture to terminate the reaction. Following precipitation and centrifugation, the amount of compound remaining in the samples were determined by LC-MS/MS. Controls of no NADPH regenerating system at zero and 30 minutes were also prepared and analyzed. […] Table 6. Human liver microsome stability of the compounds of present invention

Which results are given for `C[C@@H]1CN(c2ccc(C#N)c3ncccc23)C[C@H](CN2CCN(c3ccc4c(n3)CN[C@H]4C)CC2)O1` (single isomer, unassigned) [Example 63]?
IC50 (hTLR9): 67 nM; Clearance of Human microsome [1]: 6.15 mL/min/kg

Which IC50 (hTLR9) does the source give for `C[C@@H]1CN(c2ccc(C#N)c3ncccc23)C[C@H](CN2CCN(c3cnc4c(c3)CN[C@H]4C)CC2)O1` (single isomer, unassigned) [Example 67] here?
Its IC50 is 143 nM.

And the “Clearance of Human microsome” value [1]?
Its value is 6.15 mL/min/kg.

For `C[C@@H]1Cc2cc(N3CCN(C[C@H]4CN(c5ccc(C#N)c6ncccc56)C[C@@H](C)O4)CC3)ncc2CN1` (single isomer, unassigned) [Example 70], which IC50 (hTLR9) is on record?
Its IC50 is 83 nM.

And the “Clearance of Human microsome” value [1]?
The value was 7.55 mL/min/kg.

With `C[C@@H]1CN(c2ccc(C#N)c3ncccc23)C[C@H](CN2CCN(c3cc4c(cn3)CCN[C@@H]4C)CC2)O1` (single isomer, unassigned) [Example 74] as the compound, how does the IC50 (hTLR9) read?
The IC50 was 89 nM.

What about the “Clearance of Human microsome” value [1] of the same compound?
Its value is 7.39 mL/min/kg.

What does the source list for `C[C@@H]1CN(c2ccc(C#N)c3ncccc23)C[C@H](CN2CCN(c3cc4c(cn3)C[C@H](C)NC4)CC2)O1` (single isomer, unassigned) [Example 76]?
IC50 (hTLR9): 97 nM; Clearance of Human microsome [1]: 6.15 mL/min/kg

Which IC50 (hTLR9) does the source give for `C[C@@H]1Cc2cnc(N3CCN(C[C@H]4CN(c5ccc(C#N)c6ncccc56)C[C@@H](C)O4)CC3)cc2CN1` (single isomer, unassigned) [Example 77] here?
The IC50 was 115 nM.

What about the “Clearance of Human microsome” value [1] of the same compound?
The value was 6.34 mL/min/kg.

For `C[C@@H]1CN(c2ccc(C#N)c3ncccc23)C[C@H](CN2CC3(C2)CN(c2cc4c(cn2)CCNC4)CCO3)O1` [Example 48, 5-[(2R,6S)-2-methyl-6-[[8-(5,6,7,8-tetrahydro-2,6-naphthyridin-3-yl)-5-oxa-2,8-diazaspiro[3.5]nonan-2-yl]methyl]morpholin-4-yl]quinoline-8-carbonitrile], which IC50 (hTLR9) is on record?
The IC50 was 56 nM.

For `C[C@@H]1CN(c2ccc(C#N)c3ncccc23)C[C@H](CN2CC3(C2)CN(c2ccc4c(n2)CCNC4)CCO3)O1` [Example 49, 5-[(2R,6S)-2-methyl-6-[[8-(5,6,7,8-tetrahydro-1,6-naphthyridin-2-yl)-5-oxa-2,8-diazaspiro[3.5]nonan-2-yl]methyl]morpholin-4-yl]quinoline-8-carbonitrile], which IC50 (hTLR9) is on record?
The IC50 was 48 nM.

For `C[C@@H]1CN(c2ccc(C#N)c3ncccc23)C[C@H](CN2CC3(C2)CN(c2cnc4c(n2)CCNC4)CCO3)O1` [Example 50, 5-[(2R,6S)-2-methyl-6-[[8-(5,6,7,8-tetrahydropyrido[3,4-b]pyrazin-2-yl)-5-oxa-2,8-diazaspiro [3.5]nonan-2-yl]methyl]morpholin-4-yl] quinoline-8-carbonitrile], which IC50 (hTLR9) is on record?
Its IC50 is 69 nM.

With `C[C@@H]1CN(c2ccc(C#N)c3ncccc23)C[C@H](CN2CC3(C2)CN(c2ncc4c(n2)CCNC4)CCO3)O1` [Example 51, 5-[(2R,6S)-2-methyl-6-[[8-(5,6,7,8-tetrahydropyrido[4,3-d]pyrimidin-2-yl)-5-oxa-2,8-diazaspiro[3.5]nonan-2-yl]methyl]morpholin-4-yl]quinoline-8-carbonitrile] as the compound, how does the IC50 (hTLR9) read?
The IC50 was 134 nM.

For `C[C@@H]1CN(c2ccc(C#N)c3ncccc23)C[C@H](CN2C[C@@H]3[C@@H](C2)OCCN3c2cnc3c(c2)CCNC3)O1` [Example 52, 5-[(2S,6R)-2-[[(4aR,7aR)-4-(5,6,7,8-tetrahydro-1,7-naphthyridin-3-yl)-2,3,4a,5,7,7a-hexahydropyrrolo[3,4-b][1,4]oxazin-6-yl]methyl]-6-methylmorpholin-4-yl]quinoline-8-carbonitrile], which IC50 (hTLR9) is on record?
The IC50 was 44 nM.

Which IC50 (hTLR9) does the source give for `C[C@@H]1CN(c2ccc(C#N)c3ncccc23)C[C@H](CN2CCN(c3cnc4c(c3)CNCC4)C(C)(C)C2)O1` [Example 56, 5-[(2S,6R)-2-[[3,3-dimethyl-4-(5,6,7,8-tetrahydro-1,6-naphthyridin-3-yl)piperazin-1-yl]methyl]-6-methyl-morpholin-4-yl]quinoline-8-carbonitrile] here?
Its IC50 is 168 nM.

Which IC50 (hTLR9) does the source give for `C[C@@H]1CN(c2ccc(C#N)c3ncccc23)C[C@H](CN2CCC(Nc3ncc4c(n3)CCNC4)C2)O1` (stereo partly drawn) [Example 57, 5-[(2R,6S)-2-methyl-6-[[3-(5,6,7,8-tetrahydropyrido [4,3-d]pyrimidin-2-ylamino)pyrrolidin-1-yl]methyl]morpholin-4-yl] quinoline-8-carbonitrile] here?
Its IC50 is 36 nM.

Which IC50 (hTLR9) does the source give for `COC1CNCc2ccc(N3CCN(C[C@H]4CN(c5ccc(C#N)c6ncccc56)C[C@@H](C)O4)CC3)cc21` (stereo partly drawn) [Example 58, 5-[(2S,6R)-2-[[4-(4-methoxy-1,2,3,4-tetrahydroisoquinolin-6-yl)piperazin-1-yl]methyl]-6-methyl-morpholin-4-yl]quinoline-8-carbonitrile] here?
The IC50 was 92 nM.

Which IC50 (hTLR9) does the source give for `C[C@@H]1CN(c2ccc(C#N)c3ncccc23)C[C@H](CN2CCN(c3ccc4c(c3)C(O)CN(C)C4)CC2)O1` (stereo partly drawn) [Example 59, 5-[(2S,6R)-2-[[4-(4-hydroxy-2-methyl-3,4-dihydro-1H-isoquinolin-6-yl)piperazin-1-yl]methyl]-6-methyl-morpholin-4-yl]quinoline-8-carbonitrile] here?
Its IC50 is 133 nM.

Which IC50 (hTLR9) does the source give for `Cc1nc2c(nc1N1CCN(C[C@H]3CN(c4ccc(C#N)c5ncccc45)C[C@@H](C)O3)CC1)CCNC2` [Example 60, 5-[(2R,6S)-2-methyl-6-[[4-(3-methyl-5,6,7,8-tetrahydropyrido[3,4-b]pyrazin-2-yl)piperazin-1-yl]methyl]morpholin-4-yl]quinoline-8-carbonitrile] here?
The IC50 was 156 nM.

With `C[C@@H]1CN(c2ccc(C#N)c3ncccc23)C[C@H](CN2CCN(c3ncnc4c3CNCC4)CC2)O1` [Example 61, 5-[(2R,6S)-2-methyl-6-[[4-(5,6,7,8-tetrahydropyrido[4,3-d]pyrimidin-4-yl)piperazin-1-yl]methyl]morpholin-4-yl]quinoline-8-carbonitrile] as the compound, how does the IC50 (hTLR9) read?
Its IC50 is 229 nM.

With `C[C@@H]1CN(c2ccc(C#N)c3ncccc23)C[C@H](CN2CCN(c3nccc4c3CCNC4)CC2)O1` [Example 62, 5-[(2R,6S)-2-methyl-6-[[4-(5,6,7,8-tetrahydro-2,6-naphthyridin-1-yl)piperazin-1-yl]methyl]morpholin-4-yl]quinoline-8-carbonitrile] as the compound, how does the IC50 (hTLR9) read?
The IC50 was 151 nM.

For `COc1ccc(N2CCN(C[C@H]3CN(c4ccc(C#N)c5ncccc45)C[C@@H](C)O3)CC2)cc1` [Example R1, 5-[(2S,6R)-2-[[4-(4-methoxyphenyl)piperazin-1-yl]methyl]-6-methyl-morpholin-4-yl]quinoline-8-carbonitrile, reference compound], which IC50 (hTLR9) is on record?
Its IC50 is 6620 nM.
